# Test results as given in US20160038439A1, “Use of 7-a-[9-(4,4,5,5,5-pentafluoropentylsulfinyl)nonyl]-estra-1,3,5(10)- triene-3,17B-diol and derivatives thereof” (XI'ANLIBANG PHARMACEUTICAL TECHNOLOGY CO., LTD., priority 2013, published 2016).
# Marks after values point to notes of the source that are not given here.
# Columns and labels:
# [1] = test system: chicken type II collagen-induced arthritis model in SD rats; assay: Hindfoot joint score in chicken type II collagen-induced arthritis model in SD rats; type: in vivo; parameters: scale not given here; settings: tail vein, every other day
# Description: (§1) After inflamed model was successfully established in SD rats, the SD rats were randomly divided into model control group (12 rats), low, medium dose group (8 rats for each), and high dose group (12 rats) of test drug depending on body weight. Rats in the model control group were administered a blank fat emulsion injection (0.5 mL) by tail vein injection every other day for 7 days; rats in the low and medium dose group of test drug were administered a fat emulsion injection of a compound of Formula A (specifically including Compounds I-VI described hereafter) by tail vein injection every other day for 7 days; rats in the high dose group of test drug were administered a fat emulsion injection of a compound of Formula A by tail vein injection every other day for 14 days. 12 same models in the normal control group were also administered a blank fat emulsion injection. Indexes such as hindfoot joint score, hindfoot joint thickness measurement, TNF-α level in serum and hindfoot joint tissues, hindfoot joint pathological section and the like were used to evaluate efficacy of the drug.
# (§2) Chicken type II collagen was dissolved in 0.1 mol/L acetic acid at 4° C. while stirring so as to be thoroughly dissolved at a concentration of 2 mg/mL The resulting solution was put into a refrigerator at 4° C. overnight. Liquid paraffin and lanolin were mixed at a ratio of 2:1 (volume ratio), and the mixture was autoclaved to prepare an incomplete Freund's adjuvant (IFA). Bacillus Calmette Guerin (BCG) vaccine (60 mg) was inactivated at 80° C. for 1 hour and transferred to a mortar, into which was dropwise added IFA. After being uniformly grinded, the resulting mixture was pushed and sucked repeatedly by double-syringe to prepare a complete Freund's adjuvant (CFA), with the final concentration of BCG vaccine being 2 mg/mL. An equal amount of chicken type II collagen acid solution was mixed with CFA into a stable emulsion (containing 1 mg chicken type II collagen per milliliter).
# (§3) 12 female SD rats were randomly selected from 192 female SD rats as normal control group. The remaining 180 rats was disinfected with iodine tincture. After being deiodinated with 75% ethanol, each of the rat was administered 150 μL collagen emulsion by intradermal injection at the base of the tail, and was administered 100 μL collagen emulsion by intradermal injection at the vola pedis of right hindfoot. Thus, totally 250 μL for each rat was administered. 7 days later, an equal amount of collagen emulsion was intraperitoneal injected as a secondary immune.
# (§4) Animal grouping and administration: inflamed rats were divided into model control group, low, medium and high dose groups of test drug based on body weight.
# (§5) Rats in each group were scored for the hindfoot joint and measured for the thickness of ankle joint before being inflamed. Normal rats were taken blood from orbital venous plexus. The serum of the blood was separated out and cryopreserved at −20° C. to detect cytokines. Rats were scored for joint after being inflamed for 3 days, and were measured for the thickness of ankle joint before administration (on the 19th day since being inflamed), on the 3rd day and 8th day after administration (on the […] since being inflamed). Rats in each group were taken blood from orbital venous plexus when inflammation was severe (on the 23rd day after being inflamed). The serum of the blood was separated out and cryopreserved at −20° C. 8 rats for each group were sacrificed on the 28th day after being inflamed and were taken blood from intraperitoneal vein. The serum of the blood was separated out and was subjected to serological detection (TNF-α). The rest of rats were sacrificed on the 35th day after being inflamed, and histology index detection was carried out
# [2] = test system: chicken type II collagen-induced arthritis model in SD rats; assay: Thickness of right hindfoot ankle joint by microcalliper, collagen-induced arthritis rats; type: in vivo
# Description: as §1, §2, §3, §4, §5
# [3] = test system: TNF-α; assay: TNF-α level in serum of rats with arthritis (ELISA); type: in vivo, SD rats
# Description: as §1
# (§6) Compound I used in the present invention was purchased from Xi′ an Libang Pharmaceutical Co., Ltd.; Compounds II-IV were synthesized by the following method. SD rats used in the present invention were purchased from Super-B&K Laboratory Animal Corp. Ltd.; chicken type II collagen was purchased from Sigma, Lot No. 87H5227; rat tumor necrosis factor-α [TNF-α] enzyme-linked immunoassay kit (ELISA) was purchased from Shanghai Biovol Biotech Co., Ltd., Lot No. BV-E12102201.
# as §2, §3, §4
# as §5, with “8 rats for each group were sacrificed on the 28th day after being inflamed and were taken blood from intraperitoneal vein. The serum of the blood was separated out and was subjected to serological detection (TNF-α). The rest of rats were sacrificed on the 35th day after being inflamed, and histology index detection was carried out” left out
# [4] = test system: TNF-α; assay: TNF-α level in hindfoot ankle joint tissue of rats with arthritis; type: in vivo, SD rats
# Description: as §1, §6, §2, §3, §4
# as §5, with “8 rats for each group were sacrificed on the 28th day after being inflamed and were taken blood from intraperitoneal vein. The serum of the blood was separated out and was subjected to serological detection (TNF-α). The rest of rats were sacrificed on the 35th day after being inflamed, and histology index detection was carried out” left out
# [5] = test system: chicken type II collagen-induced arthritis model in SD rats; assay: Pathological examination score of hindfoot ankle joint of rats with arthritis; type: in vivo; settings: high dose group (1.40-2.16 mg/kg per compound), every other day for 14 days, n=4
# Description: as §1, §2
# as §3, with “Thus, totally 250 μL for each rat was administered. 7 days later, an equal amount of collagen emulsion was intraperitoneal injected as a secondary immune.” left out
# Rats in each group were scored for the hindfoot joint and measured for the thickness of ankle joint before being inflamed. […] Rats were scored for joint after being inflamed for 3 days, and were measured for the thickness of ankle joint before administration (on the 19th day since being inflamed), on the 3rd day and 8th day after administration (on the 20th day since being inflamed). […]
# [6] = high dose group, before administration (baseline)
# [7] = high dose group, the 3rd day after administration
# [8] = high dose group, the 8th day after administration
# [9] = low dose group, before administration (baseline)
# [10] = low dose group, the 3rd day after administration
# [11] = low dose group, the 8th day after administration
# [12] = medium dose group, before administration (baseline)
# [13] = medium dose group, the 3rd day after administration
# [14] = medium dose group, the 8th day after administration
substance,measurement,setting,value
"7-α-[9-(4,4,5,5,5-pentafluoropentylsulfinyl)nonyl]-estra-1,3,5(10)-triene-3-hydroxyl-17-docosanoyl [Compound III]",Mean value of hindfoot joint score,[1]; [6],5.4
same,Mean value of hindfoot joint score,[1]; [7],4.8**^#
same,Mean value of hindfoot joint score,[1]; [8],5.6
same,Mean value of hindfoot joint score,[1]; [9],4.5
same,Mean value of hindfoot joint score,[1]; [10],5.3**^##
same,Mean value of hindfoot joint score,[1]; [11],5
same,Mean value of hindfoot joint score,[1]; [12],5
same,Mean value of hindfoot joint score,[1]; [13],4.8**
same,Mean value of hindfoot joint score,[1]; [14],5.4
same,Thickness of ankle joint (mean ± SD),[2]; [6],6.59 ± 0.44 mm
same,Thickness of ankle joint (mean ± SD),[2]; [7],6.55 ± 0.56 mm
same,Thickness of ankle joint (mean ± SD),[2]; [8],6.31 ± 0.69 mm
same,Thickness of ankle joint (mean ± SD),[2]; [9],5.94 ± 0.52 mm
same,Thickness of ankle joint (mean ± SD),[2]; [10],6.22 ± 0.38 mm
same,Thickness of ankle joint (mean ± SD),[2]; [11],6.06 ± 0.29 mm
same,Thickness of ankle joint (mean ± SD),[2]; [12],6.33 ± 0.52 mm
same,Thickness of ankle joint (mean ± SD),[2]; [13],6.45 ± 0.53 mm
same,Thickness of ankle joint (mean ± SD),[2]; [14],6.36 ± 0.46 mm
same,TNF-α level in serum (mean ± SD),[3]; [7],16.53 ± 15.71 pg/mL
same,TNF-α level in serum (mean ± SD),[3]; [8],10.36 ± 7.08 pg/mL
same,TNF-α level in serum (mean ± SD),[3]; [10],81.94 ± 141.25 pg/mL
same,TNF-α level in serum (mean ± SD),[3]; [11],157.89 ± 248.01 pg/mL
same,TNF-α level in serum (mean ± SD),[3]; [13],12.31 ± 17.56 pg/mL
same,TNF-α level in serum (mean ± SD),[3]; [14],39.56 ± 29.29 pg/mL
same,TNF-α level in ankle (mean ± SD),"[4]; left ankle joint, high dose group",11.05 ± 3.96 pg/mL
same,TNF-α level in ankle (mean ± SD),"[4]; left ankle joint, low dose group",12.93 ± 4.15 pg/mL
same,TNF-α level in ankle (mean ± SD),"[4]; left ankle joint, medium dose group",13.62 ± 3.42 pg/mL
same,TNF-α level in ankle (mean ± SD),"[4]; right ankle joint, high dose group",13.85 ± 3.38 pg/mL
same,TNF-α level in ankle (mean ± SD),"[4]; right ankle joint, low dose group",14.13 ± 4.20 pg/mL
same,TNF-α level in ankle (mean ± SD),"[4]; right ankle joint, medium dose group",12.02 ± 5.91 pg/mL
same,Joint lesion score (mean ± SD),[5],1.50 ± 1.91
